Values joined by “and” are separate entries in the source; they are usually repeats but may differ in a detail not shown here. Equal values may be shown once. “Also recorded” adds a separate entry of the source.
How the values were obtained:
mTORC1 = mTORC1 activation in rat peripheral tissues after oral dosing (phosphorylated S6 S240/244 immunoblot); assay type: in vivo; conditions: 1 h after single oral dose; NV-5138 160 mg/kg, leucine 500 mg/kg
Method: After compound administration, animals were sacrificed by decapitation using a guillotine, immediately Specific regions of the brain were quickly microdissected, tissues collected, and flash frozen in liquid nitrogen. Peripheral tissues and all brain were homogenized using MP homogenizer in Lysis Buffer (Cell lysis buffer: 1% Triton X-100, 50 mM HEPES pH 7.4, 100 mM NaCl, 2 mM EDTA, 10 mM Beta-glycerophosphate, 10 mM Sodium pyrophosphate, and 1 protease inhibitor) at 4 °C. Synaptic proteins and mTORC1 analyses in each brain region were conducted on crude synaptoneurosome preparations as previously described. Equal amounts of total protein from each sample were denatured and, resolved by SDS-PAGE. Membranes were imaged using the LI-COR imaging system. Proteins levels are normalized to tubulin or GAPDH levels and further normalized to vehicle treated rats for each tissue. Antibodies used are listed in Supplementary Information.

Sestrin2 = biological target: T1, Sestrin2 (Homo sapiens, UniProt P58004); experiment: Isothermal titration calorimetry (ITC) on Sestrin2; assay type: binding; parameters: Full-length, codon-optimized human Sestrin2 was cloned into a pMAL6H -C5XT bacterial expression vector; His6-MBP (TEV-cleavable) (N, cleaved yes); made in house; host or cells: Escherichia coli LOBSTR (DE3); conditions: for Kd: estimated, Sestrin2 pre-exchanged with methionine
T1 sequence (P58004 1-480): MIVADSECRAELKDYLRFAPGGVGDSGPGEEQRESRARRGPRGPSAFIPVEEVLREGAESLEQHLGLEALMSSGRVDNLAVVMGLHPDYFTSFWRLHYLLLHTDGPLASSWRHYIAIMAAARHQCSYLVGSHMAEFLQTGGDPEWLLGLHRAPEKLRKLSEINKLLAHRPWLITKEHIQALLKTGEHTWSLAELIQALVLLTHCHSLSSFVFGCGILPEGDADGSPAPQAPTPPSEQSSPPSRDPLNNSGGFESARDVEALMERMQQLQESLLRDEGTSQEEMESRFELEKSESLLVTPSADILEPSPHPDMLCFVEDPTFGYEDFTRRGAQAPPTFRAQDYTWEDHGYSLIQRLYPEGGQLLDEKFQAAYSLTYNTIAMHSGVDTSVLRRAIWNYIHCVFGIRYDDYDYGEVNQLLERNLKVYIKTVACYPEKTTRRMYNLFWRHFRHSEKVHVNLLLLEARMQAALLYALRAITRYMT
Method: Details of NV-5138 synthesis and protein preparation for ITC can be found in Supplementary Information.
For this exchange procedure ion exchange chromatography was used using the following buffers:
Buffer-A: HEPES 20mM pH 7.4, βME 5mM, Buffer-B: HEPES 20mM pH 7.4, βME 5mM, Methionine 5mM, Buffer-C: HEPES 20mM pH 7.4, βME 5mM, NaCl 1M. Sestrin2 (6 mg) was diluted to 5ml with buffer-A, and loaded on a MonoQ HR 5/50 column equilibrated in buffer-A. The column was washed with 2-3 column volume (CV) of buffer-A followed by 130 ml of buffer-B. The protein was then eluted in steps of 300 mM, 500 mM, and 1 M NaCl in buffer-C. The protein eluted in the 300 mM NaCl fractions and was concentrated to 7.6 mg/ml.

BCAT2 = biological target: T2, BCAT2 (Homo sapiens, UniProt O15382); experiment: BCAT enzymatic assay (substrate test), BCAT2; assay type: biochemical; conditions: NADH oxidation at 340 nm; tested up to 1.5 mM
T2 construct: purchased OriGene TP300625
T2 sequence (O15382 28-392): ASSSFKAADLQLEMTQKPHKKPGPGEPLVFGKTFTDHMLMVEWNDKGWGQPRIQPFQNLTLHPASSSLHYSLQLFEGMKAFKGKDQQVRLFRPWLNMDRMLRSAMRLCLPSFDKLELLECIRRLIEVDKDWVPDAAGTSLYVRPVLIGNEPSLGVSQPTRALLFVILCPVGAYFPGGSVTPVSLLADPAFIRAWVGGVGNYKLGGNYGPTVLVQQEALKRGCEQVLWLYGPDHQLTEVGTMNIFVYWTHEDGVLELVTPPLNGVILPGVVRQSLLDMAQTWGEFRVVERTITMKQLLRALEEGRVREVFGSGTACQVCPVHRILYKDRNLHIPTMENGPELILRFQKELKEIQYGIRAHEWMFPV
Method: (§1) BCAT exists in two isoforms, mitochondrial BCAT2 which is ubiquitously expressed, and cytosolic BCAT1, which is predominantly expressed in embryonic tissues and the adult brain. To determine whether NV-5138 is a substrate for BCAT isoforms, we established an in vitro enzymatic assay using purified BCAT1 and BCAT2 and performed the assay in the forward direction as described. […] The disappearance of absorbance at 340 nm due to NADH oxidation is measured continuously over time.
(§2) The assay buffer was dispensed into a 96-well plate and brought up to 37 °C for 10 min before adding BCAT1 or BCAT2 (72 ng) in 0.1 M potassium phosphate buffer. Absorbance at 340 nm was then read every minute for 30 min at RT using an Envision plate reader. Source of each reagents used can be found in Supplementary Information.

BCAT1 = biological target: T3, BCAT1 (Homo sapiens, UniProt P54687); experiment: BCAT enzymatic assay (substrate test), BCAT1; assay type: biochemical; conditions: NADH oxidation at 340 nm; tested up to 1.5 mM
T3 construct: purchased OriGene TP319229
T3 sequence (P54687 1-386): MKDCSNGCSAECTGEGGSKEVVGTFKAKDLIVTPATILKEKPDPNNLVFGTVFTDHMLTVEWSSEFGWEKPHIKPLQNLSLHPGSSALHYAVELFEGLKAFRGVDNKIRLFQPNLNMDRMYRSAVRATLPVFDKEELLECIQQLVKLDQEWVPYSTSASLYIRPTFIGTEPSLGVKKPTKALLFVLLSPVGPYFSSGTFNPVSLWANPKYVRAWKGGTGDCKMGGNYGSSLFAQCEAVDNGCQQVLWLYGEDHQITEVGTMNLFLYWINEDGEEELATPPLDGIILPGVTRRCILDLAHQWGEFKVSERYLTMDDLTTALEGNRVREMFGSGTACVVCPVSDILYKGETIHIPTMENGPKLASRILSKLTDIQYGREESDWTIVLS
Method: as §1, §2

CC(C)(C[C@H](N)C(=O)O)C(F)F [NV-5138, (S)-2-amino-5,5-difluoro-4,4-dimethylpentanoic acid]
mTORC1 activation in kidney, heart, tibialis anterior muscle, testes, epididymal fat (mTORC1): significant activation
mTORC1 activation in liver (mTORC1): trend
mTORC1 activation in lung, spleen, gastrocnemius muscle, eye, thymus (mTORC1): little to no activation
Kd (Sestrin2): 1500 nM and 1490 nM
transamination by BCAT2 (BCAT2): no decrease in absorption at 340 nm; also recorded: did not observe any transamination
transamination by BCAT1 (BCAT1): no decrease in absorption at 340 nm; also recorded: did not observe any transamination

CC(C)C[C@H](N)C(=O)O [Leucine, L-leucine, reference compound]
mTORC1 activation in kidney, heart, tibialis anterior muscle, testes, epididymal fat (mTORC1): significant activation
mTORC1 activation in liver (mTORC1): significant activation
mTORC1 activation in lung, spleen, gastrocnemius muscle, eye, thymus (mTORC1): little to no activation
molar stoichiometry (ITC) (Sestrin2): 1
Kd (Sestrin2): 1600 nM and 1550 nM
transamination by BCAT2 (BCAT2): transaminated by BCAT1 and BCAT2
transamination by BCAT1 (BCAT1): transaminated by BCAT1 and BCAT2

— PMC6412019, “Discovery of NV-5138, the first selective Brain mTORC1 activator” (Scientific Reports, 2019)
